Test results reported in publication PMC6458850, “CXXC5 mediates growth plate senescence and is a target for enhancement of longitudinal bone growth” (Life Science Alliance, 2019).

Legend:
C28/I2 cells = test: CXXC5/β-catenin expression and chondrogenic markers in C28/I2 cells; type: cell-based, human
Protocol: Figure 2. The effects of estrogen on CXXC5 expression and the mediation of growth plate senescence. (A) Immunoblotting (upper) and quantitative analyses (mean ± SEM, n = 3) (lower) in C28/I2 cells treated with 100 nM E2 (17β-estradiol) for 0, 1, 3, 6, 24, 48, or 72 h. (B) Immunocytochemical staining (left) and quantitative analyses of the fluorescent intensity (mean ± SEM, n = 3; t test, **P < 0.005 and ***P < 0.0005) (right) in C28/I2 cells treated with 100 nM E2 for 40 h. Scale bars, 100 μm. (C–E) Tibial organ cultures (E15.5) incubated with 100 nM E2 for 6 d. Representative images at 6 d (C, left) and quantitative analyses of the growth changes (mean ± SEM, n = 5; t test, ***P < 0.0005) (C, right). Scale bar, 1 mm. H&E staining (D, left) and quantification of each zone height (mean ± SEM, n = 5; t test, *P < 0.05 and **P < 0.005) (D, right) in the growth plate. Scale bar, 200 μm. IHC analyses of β-catenin and CXXC5 (E). Scale bars, 50 μm. (F) 3-wk-old Cxxc5^+/+ and Cxxc5^−/− mice were treated with E2 cypionate (70 μg/kg) by i.m. injection once a week for 3 wk (n = 3–4). Representative images of H&E staining and IHC analyses for BrdU, β-catenin, and CXXC5 in the growth plates of proximal tibiae are shown. The area within the dashed lines indicates the growth plate zone. Black and white scale bars, 50 μm. Yellow scale bar, 20 μm. RZ, resting zone; PZ, proliferative zone; HZ, hypertrophic zone.
(§1) Figure S7. The effects of KY19382 on chondrocyte proliferation and differentiation. (A) ATDC5 cells treated with 0.01 or 0.1 μM concentrations of KY19382 were incubated for 48 h followed by treatment with 50 μM BrdU for 12 h before harvesting. BrdU incorporation was visualized by immunofluorescent staining using a specific BrdU antibody (left). BrdU-positive cells were quantified (mean ± SEM, n = 3; ANOVA, P = 7.8 × 10^−5; Tukey’s post-hoc test, *P < 0.05 and ***P < 0.0005) (right). Scale bar, 100 μm. (B) qRT-PCR analyses of mRNA levels of chondrogenic differentiation markers in ATDC5 cells incubated with 0.1 μM KY19382 for 3 d in three-dimensional alginate beads after transfection with control siRNA or Ctnnb1 siRNA (mean ± SEM, n = 3; t test, *P < 0.05, **P < 0.005, and ***P < 0.0005). (C) qRT-PCR analyses of mRNA levels of chondrogenic differentiation markers in C28/I2 cells incubated with 1 μM KY19382 for 3 d in three-dimensional alginate beads (mean ± SEM, n = 3; t test, *P < 0.05 and ***P < 0.0005). n.s., no significance.
The mouse chondrogenic cell line, ATDC5, was obtained from the RIKEN Cell Bank. The human juvenile costal chondrocyte cell line, C28/I2, was provided by Dr. W U Kim (Catholic University, Korea). HEK293-TOP cells (HEK293 cells containing the chromosomally incorporated TOPFlash gene) were provided by Dr. S Oh (Kuk Min University, Korea). […]

ATDC5 cells = test: Chondrocyte proliferation, differentiation and Wnt/β-catenin signaling in ATDC5 cells; type: cell-based, mouse
Protocol: as §1
Figure S8. qRT-PCR analyses for target-specificity of KY19382. qRT-PCR analyses of mRNA levels of pathway-specific target genes in ATDC5 cells treated with 0.01 or 0.1 μM concentrations of KY19382 for 4 h (mean ± SEM, n = 3; ANOVA and Tukey’s post-hoc test, *P < 0.05 and **P < 0.005 versus DMSO-treated control). n.s., no significance versus DMSO-treated control.
The mouse chondrogenic cell line, ATDC5, was obtained from the RIKEN Cell Bank. The human juvenile costal chondrocyte cell line, C28/I2, was provided by Dr. W U Kim (Catholic University, Korea). HEK293-TOP cells (HEK293 cells containing the chromosomally incorporated TOPFlash gene) were provided by Dr. S Oh (Kuk Min University, Korea). ATDC5 cells were maintained in DMEM/F12 (1:1) (Gibco) supplemented with 5% FBS (Gibco). To induce hypertrophic differentiation, ATDC5 cells were incubated with insulin–transferrin–sodium selenite supplement (Gibco) in three-dimensional alginate beads for 3 d, as described previously ([Kawasaki et al, 2008]). C28/I2 and HEK293-TOP cells were maintained in DMEM (Gibco) containing 10% FBS. All chemicals were dissolved in dimethyl sulfoxide (DMSO; Sigma-Aldrich) for the in vitro studies. For E2 (17β-estradiol; Sigma-Aldrich) treatment, the cells were cultured in phenol red–free DMEM/F12 with 5% charcoal-stripped FBS for 24 h followed by serum-free medium for 24 h before the experiment. The PTD-DBMP was synthesized by Peptide 2.0 Inc.
ATDC5 or C28/I2 cells were seeded on glass coverslip in 12-well culture plates. The cells were washed with PBS and fixed with 4% PFA at room temperature for 15 min. After permeabilization with 0.1% Triton X-100 for 15 min and blocking with 5% BSA for 1 h, the cells were incubated with primary antibodies specific for β-catenin (1:100) or CXXC5 (1:200) at 4°C overnight. The cells were washed in PBS and incubated with Alexa Fluor 488 or Alexa Fluor 555 secondary antibodies (1:200) at room temperature for 1 h. Cell nuclei were counterstained with DAPI for 10 min and the stained samples were examined under an LSM700 META microscope using 405-, 488-, or 543-nm excitation wavelengths. For BrdU assay, the cultured cells were incubated with BrdU solution (25 μM) overnight, followed by immunocytochemical staining with antibody against BrdU (1:100).
Immunoprecipitation was performed as previously described ([Kim et al, 2015]). To monitor the protein–protein interactions, 1 mg of WCLs were incubated with anti-DVL1 and protein G agarose beads (GenDEPOT) or anti-Myc and protein A agarose beads (GenDEPOT) at 4°C for 16 h, and the beads were then washed three times in RIPA buffer. The resulting immune complexes were resolved by SDS–PAGE, and immunoblotting was performed with the indicated antibodies.
Total RNA was extracted using Trizol reagent (Invitrogen) according to the manufacturer’s instructions. […]

[1] = ATDC5 cells, 0.01 or 0.1 μM, 4 h

Structure (SMILES)	time of maximal CXXC5 level (C28/I2 cells; 100 nM)	CXXC5 expression (C28/I2 cells; 100 nM, 0-72 h)	β-catenin level (C28/I2 cells; 100 nM, after 24 h)	BrdU-positive ATDC5 cells (ATDC5 cells; 0.01 or 0.1 μM, 48 h)	CXXC5–DVL interaction (immunoprecipitation) (ATDC5 cells; ATDC5 cells transfected with FLAG-DVL1 and CXXC5-Myc, 0.1 μM, 4 h)	nuclear translocation of β-catenin (ATDC5 cells; ATDC5 cells, 0.1 μM, 48 h)	mRNA levels of chondrogenic markers (ATDC5 cells; ATDC5 cells, 0.1 μM, 3 d, alginate beads)	expression levels of Wnt/β-catenin target genes (Wisp1, Axin2) (ATDC5 cells; [1])	expression of 19 other genes that respond to other pathways (off-target effects) (ATDC5 cells; [1])	concentration sufficient to promote activation of Wnt/β-catenin pathway in vitro (ATDC5 cells; Fig 4E and Fig S8)	mRNA levels of chondrogenic markers (C28/I2 cells; 1 μM, 3 d, alginate beads)
C[C@]12CC[C@@H]3c4ccc(O)cc4CC[C@H]3[C@@H]1CC[C@@H]2O [E2, 17β-estradiol]	24 h	induced	reduced	–	–	–	–	–	–	–	–
CON=C1C(=C2C(=O)Nc3cc(Cl)c(Cl)cc32)Nc2ccccc21 [KY19382, 5,6-dichloroindirubin-3′-methoxime]	–	–	–	enhanced number	interruption	elevated nuclear translocation	up-regulated	markedly increased	not significantly altered	0.01 µM	up-regulated
